US10308620B2, “Muscarinic M1 receptor positive allosteric modulators” (SUVEN LIFE SCIENCES LIMITED, priority 2015, dated 2019)
Read-outs that look alike come from different tables or passages of the source.

Columns and labels:
[1] = Rodent pharmacokinetic study; format: in vivo, rat; settings: male Wistar rats; for clearance / half-life / Vd / Cmax / Tmax / bioavailability: rat, plasma; for Vd: read-out: Vz; for bioavailability: 3 mg/kg oral vs 1 mg/kg i.v.
Method: Rodent Pharmacokinetic Study
Male Wistar rats (260±50 grams) were used as experimental animals. Animals were housed individually in polypropylene cage. Two days prior to study, male Wistar rats were anesthetized with isoflurane for surgical placement of jugular vein catheter. Rats were randomly divided for oral (3 mg/kg) and intravenous (1 mg/kg) dosing (n=3/group) and fasted overnight before oral dosing (p.o.). However, rats allocated to intravenous (i.v.) dosing food and water was provided ad libitum.
At pre-determined point, blood was collected through jugular vein and replenished with an equivalent volume of normal saline. Collected blood was transferred into a labeled eppendorf tube containing 10 μL of heparin as an anticoagulant. Typically blood samples were collected at following time points: 0.08, 0.25, 0.5, 1, 2, 4, 6, 8, and 24 hours post dose. Blood was centrifuged at 4000 rpm for 10 minutes. Plasma was separated and stored frozen at −80° C. until analysis. The concentrations of the test compounds were quantified in plasma by qualified LC-MS/MS method using suitable extraction technique. The test compounds were quantified in the calibration range around 1-1000 ng/mL in plasma. Study samples were analyzed using calibration samples in the batch and quality control samples spread across the batch.
Pharmacokinetic parameters Cmax, Tmax, AUCt, T1/2, clearance, Vz and bioavailability were calculated by non-compartmental model using standard non-compartmental model by using Phoenix WinNonlin 6.0.2 or 6.0.3 version Software package.

[2] = target: recombinant human Muscarinic M1 receptor (Homo sapiens (Human), UniProt P11229); experiment: Allosteric potency EC50, CHO cells with pCRE-Luc reporter, in presence of EC20 of acetylcholine; format: cell-based; settings: 4 hours
Method in brief: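 Stable CHO cells carrying human M1 receptor and a pCRE-Luc reporter, serum-starved overnight, then exposed to rising compound concentrations plus EC20 acetylcholine in OptiMEM for 4 h at 37 °C. Luciferase read after lysis. EC50 is the concentration giving 50% luciferase stimulation with EC20 acetylcholine present.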

[3] = system: Male Wistar rats; experiment: Object recognition task model - scopolamine challenge; format: in vivo, rat; settings: 0.3 mg/kg, p.o., with scopolamine
Method: Object Recognition Task Model—Scopolamine Challenge
(§1) The cognition enhancing properties of compounds of this invention were estimated by using this model.
(§2) Male Wistar rats (8-10 weeks old) were used as experimental animals. Four animals were housed in each cage. Animals were kept on 20% food deprivation from a day prior to experimentation. Water was provided ad libitum throughout the experiment. Animals were maintained on a 12 hours light/dark cycle in temperature and humidity controlled room. The experiment was carried out in an open field made up of acrylic. Rats were habituated to individual arenas (open field) for 1 hour in the absence of any objects on day 1.
Rats received vehicle or vehicle and scopolamine or compound of the formula (I) and scopolamine, before the familiar (T1). During the familiarization phase, (T1), the rats were placed individually in the arena for 3 minutes, in which two identical objects (a1 and a2) were positioned 10 cm from the wall. 3 minutes after T1, trial for memory test was performed. The same rats were placed in the same arena as they were placed in T1 trial. During the choice phase (T2) rats were allowed to explore the arena for 3 minutes in presence of a copy of familiar object (a3) and one novel object (b). During the T1 and T2 trial, explorations of each object (defined as sniffing, licking, chewing or having moving vibrissae whilst directing the nose towards the object at a distance of less than 1 cm) were recorded using stopwatch.
(§3) T1 is the total time spent exploring the familiar objects (a1+a2).
(§4) T2 is the total time spent exploring the familiar object and novel object (a3+b). Discriminative index=Time spent with novel object/(time spent with novel and familiar object).

[4] = Rodent brain penetration study; format: in vivo; settings: rat, oral, 3 mg/kg, p.o., male Wistar rats, read-out: Single dose Rat Brain Penetration (Cb/Cp)
Method: Rodent Brain Penetration Study
Male Wistar rats (260±40 grams) were used as experimental animals. Three animals were housed in each cage. Animals were given water and food ad libitum throughout the experiment and maintained on a 12 hours light/dark cycle.
Brain penetration was determined in discrete manner in rats. One day prior to dosing day, male Wistar rats were acclimatized and randomly grouped according to their weight. At each time point (0.50, 1 and 2 hours) n=3 animals were used.
The test compounds were suitably preformulated and administered orally at (free base equivalent) 3 mg/kg. Blood samples were removed via cardiac puncture by using isoflurane anesthesia. The animals were sacrificed to collect brain tissue. Plasma was separated and brain samples were homogenized and stored frozen at −20° C. until analysis. The concentrations of the test compounds in plasma and brain were determined using LC-MS/MS method.
The test compounds were quantified in plasma and brain homogenate by qualified LC-MS/MS method using suitable extraction technique. The test compounds were quantified in the calibration range of 1-500 ng/mL in plasma and brain homogenate. Study samples were analyzed using calibration samples in the batch and quality control samples spread across the batch. Extent of brain-plasma ratio was calculated (Cb/Cp).

[5] = system: Male Wistar rats; experiment: Object recognition task model (time induced memory deficit); format: in vivo, rat; settings: p.o.; for Exploration time mean ± S.E.M, Familiar object / Exploration time mean ± S.E.M, Novel object: choice trial 24 hours after T1
Method: Object Recognition Task Model
as §1, §2
One group of 12 rats received vehicle and another set of animals received test compounds or test compounds and Donepezil, before the familiar (T1) and choice (T2) trials. During the familiarization phase, (T1), the rats were placed individually in the arena for 3 minutes, in which two identical objects (a1 and a2) were positioned 10 cm from the wall. 24 hours after T1, trial for long-term memory test was performed. The same rats were placed in the same arena as they were placed in T1 trial. During the choice phase (T2) rats were allowed to explore the arena for 3 minutes in presence of a copy of familiar object (a3) and one novel object (b). During the T1 and T2 trial, explorations of each object (defined as sniffing, licking, chewing or having moving vibrissae whilst directing the nose towards the object at a distance of less than 1 cm) were recorded using stopwatch.
as §3, §4
The object recognition test was performed as described in Behavioural Brain Research, 1988, 31, 47-59.

[6] = target: M1 muscarinic receptor (Homo sapiens (Human), UniProt P11229); settings: cited from earlier work
[7] = cited from earlier work
[8] = cited from earlier work; remark: listed apart in the source
[9] = choice trial 3 minutes after T1

recombinant human Muscarinic M1 receptor, sequence (P11229 whole entry): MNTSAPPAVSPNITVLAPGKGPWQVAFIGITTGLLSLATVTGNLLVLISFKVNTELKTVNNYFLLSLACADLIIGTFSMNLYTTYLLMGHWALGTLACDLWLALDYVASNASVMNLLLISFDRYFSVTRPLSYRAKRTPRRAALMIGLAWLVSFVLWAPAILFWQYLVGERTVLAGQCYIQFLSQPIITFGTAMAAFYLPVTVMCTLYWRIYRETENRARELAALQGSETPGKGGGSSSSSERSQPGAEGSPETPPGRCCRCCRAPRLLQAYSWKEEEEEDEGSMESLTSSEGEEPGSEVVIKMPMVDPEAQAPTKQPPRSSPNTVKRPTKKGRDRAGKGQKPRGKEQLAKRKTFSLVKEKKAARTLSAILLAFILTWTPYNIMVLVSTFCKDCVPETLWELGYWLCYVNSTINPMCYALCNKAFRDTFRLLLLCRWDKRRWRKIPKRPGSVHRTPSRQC

Work on `O=C(N[C@H]1CCCC[C@@H]1O)C1=CN(Cc2ccccc2F)c2ccccc2O1` [Example 1, N-(cis-1S, 2S-2-Hydroxycyclohexyl)-4-(2-fluorobenzyl)-4H-benzo[1,4]oxazine-2-carboxamide] yielded an AUC0-t ([1]; 1 mg/kg i.v. (bolus)) of 834 ± 101 ng·h/mL, an AUC0-t ([1]; 3 mg/kg oral (gavage)) of 989 ± 386 ng·h/mL and a clearance ([1]; iv, 1 mg/kg i.v. (bolus)) of 19 ± 2 mL/min/kg. The half-life ([1]; iv, 1 mg/kg i.v. (bolus)) was 2.3 ± 0.7 h, the Vd ([1]; iv, 1 mg/kg i.v. (bolus)) was 4 ± 1.4 L/kg and the Cmax ([1]; 3 mg/kg oral (gavage)) was 419 ± 162 ng/mL. It also gave a Tmax ([1]; 3 mg/kg oral (gavage)) of 0.5 h, a half-life ([1]; 3 mg/kg oral (gavage)) of 2.3 ± 1.1 h and a bioavailability [1] of 40 ± 15%. The EC50 [2] was 422 nM, the Inference [3] was “Active” and the “Exploration time mean ± S.E.M, Familiar object” value [3, 9] was 11.57 ± 1.51 s. The “Exploration time mean ± S.E.M, Novel object” value [3, 9] was 22.66 ± 2.90 s, the Kp [4] was 1.18 ± 0.38 and the Inference ([5]; 1 mg/kg) was “Active”. For the same compound, the “Exploration time mean ± S.E.M, Familiar object” value ([5]; 1 mg/kg) was 10.93 ± 1.98 s and the “Exploration time mean ± S.E.M, Novel object” value ([5]; 1 mg/kg) was 19.27 ± 2.94 s.

In the case of `COc1cc(CN2C=C(C(=O)N[C@H]3CCCC[C@@H]3O)Oc3ccccc32)ccn1` [Example 11, N-(cis-1S,2S-2-Hydroxycyclohexyl)-4-(2-methoxypyridin-4-ylmethyl)-4H-benzo[1,4]oxazine-2-carboxamide], the AUC0-t ([1]; 1 mg/kg i.v. (bolus)) is reported as 838 ± 163 ng·h/mL, the AUC0-t ([1]; 3 mg/kg oral (gavage)) is reported as 1500 ± 200 ng·h/mL and the clearance ([1]; iv, 1 mg/kg i.v. (bolus)) is reported as 20 ± 4 mL/min/kg. For the same compound, the half-life ([1]; iv, 1 mg/kg i.v. (bolus)) was 1.9 ± 0.6 h, the Vd ([1]; iv, 1 mg/kg i.v. (bolus)) was 3.1 ± 0.3 L/kg and the Cmax ([1]; 3 mg/kg oral (gavage)) was 392 ± 43 ng/mL. The Tmax ([1]; 3 mg/kg oral (gavage)) was 1 h, the half-life ([1]; 3 mg/kg oral (gavage)) was 1.8 ± 0.1 h and the bioavailability [1] was 60 ± 8%. The EC50 [2] was 498 nM, the Kp [4] was 1.44 ± 0.16 and the Inference ([5]; 1 mg/kg) was “Active”. The “Exploration time mean ± S.E.M, Familiar object” value ([5]; 1 mg/kg) was 10.05 ± 1.66 s and the “Exploration time mean ± S.E.M, Novel object” value ([5]; 1 mg/kg) was 16.92 ± 1.86 s.

In the case of `O=C(N[C@H]1CCCC[C@@H]1O)C1=CN(Cc2ccccc2)c2ccccc2O1` [Example 4, N-(cis-1S,2S-2-Hydroxycyclohexyl)-4-benzyl-4H-benzo[1,4]oxazine-2-carboxamide], the AUC0-t ([1]; 1 mg/kg i.v. (bolus)) is reported as 415 ± 17 ng·h/mL, the AUC0-t ([1]; 3 mg/kg oral (gavage)) is reported as 607 ± 62 ng·h/mL and the clearance ([1]; iv, 1 mg/kg i.v. (bolus)) is reported as 40 ± 2 mL/min/kg. It also gave a half-life ([1]; iv, 1 mg/kg i.v. (bolus)) of 1.4 ± 0.1 h, a Vd ([1]; iv, 1 mg/kg i.v. (bolus)) of 4.7 ± 0.1 L/kg and a Cmax ([1]; 3 mg/kg oral (gavage)) of 245 ± 27 ng/mL. It also gave a Tmax ([1]; 3 mg/kg oral (gavage)) of 0.58 ± 0.38 h, a half-life ([1]; 3 mg/kg oral (gavage)) of 1.5 ± 0.3 h and a bioavailability [1] of 49 ± 5%. For the same compound, the EC50 [2] was 1430 nM, the Kp [4] was 1.43 ± 0.01 and the Inference ([5]; 10 mg/kg) was “Active”. The “Exploration time mean ± S.E.M, Familiar object” value ([5]; 10 mg/kg) was 7.43 ± 0.67 s and the “Exploration time mean ± S.E.M, Novel object” value ([5]; 10 mg/kg) was 11.21 ± 1.26 s.

In the case of `N#CC1(c2ccccn2)CCN(Cc2cc(C(=O)O)c(=O)n3ccccc23)CC1` [PQCA, 1-{[4-cyano-4-(pyridine-2-yl)piperidin-1-yl]methyl}-4-oxo-4H-quinolizine-3-carboxylic acid], the “selectivity for M1 over the other muscarinic receptor sub types” value [6] is given as “highly selective”, the gastrointestinal side effects ([7]; at doses equal to or less than a fivefold margin from the minimum effective dose) is given as “no gastrointestinal side effects” and the “efficacy in preclinical models of cognition” value ([7]; in vivo) is given as “efficacious”.

For `CCCCCCOc1nsnc1C1=CCCN(C)C1` [Xanomeline], the effects on cognition ([8]; clinical Alzheimer's disease trial) is given as “significant effects on cognition” and the gastrointestinal side effects ([8]; clinical trials) is given as “gastrointestinal side effects led to a high dropout rate”.

Compound `O=C(N[C@H]1CCCC[C@@H]1O)C1=CN(Cc2ccncc2)c2ccccc2O1` [Example 23, N-(cis-1S,2S-2-Hydroxycyclohexyl)-4-(pyridin-4-ylmethyl)-4H-benzo[1,4]oxazine-2-carboxamide] has an AUC0-t ([1]; 1 mg/kg i.v. (bolus)) of 419 ± 182 ng·h/mL, an AUC0-t ([1]; 3 mg/kg oral (gavage)) of 437 ± 138 ng·h/mL and a clearance ([1]; iv, 1 mg/kg i.v. (bolus)) of 44 ± 21 mL/min/kg. The half-life ([1]; iv, 1 mg/kg i.v. (bolus)) was 1.5 ± 0.9 h, the Vd ([1]; iv, 1 mg/kg i.v. (bolus)) was 6.8 ± 7.1 L/kg and the Cmax ([1]; 3 mg/kg oral (gavage)) was 428 ± 78 ng/mL. For the same compound, the Tmax ([1]; 3 mg/kg oral (gavage)) was 0.42 ± 0.14 h, the half-life ([1]; 3 mg/kg oral (gavage)) was 1.2 ± 0.6 h and the bioavailability [1] was 35 ± 11%. For the same compound, the EC50 [2] was 323 nM, the Kp [4] was 0.32 ± 0.02 and the Inference ([5]; 1 mg/kg) was “Active”. For the same compound, the “Exploration time mean ± S.E.M, Familiar object” value ([5]; 1 mg/kg) was 13.15 ± 1.55 s and the “Exploration time mean ± S.E.M, Novel object” value ([5]; 1 mg/kg) was 17.99 ± 2.53 s.
